Our source for the TGI and GI50 values is PubChem BioAssay (NCI).

Molecules are shown by their SMILES.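 All cell lines were grown in 96-well plates and treated with compound for 48 hours. At the GI50, growth is halved. TGI: concentration producing complete growth inhibition.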 Where a SMILES comes first, the peptide text is derived from it. [ ]: non-standard residue; d: D form. The star is where a group is joined. ξ: configuration not given here. ξF = NC(Cc1ccccc1)C(=O)O; Cbz = O=C(OCc1ccccc1)*; Aib = CC(C)(N)C(=O)O

Assay in all cases: inhibition of tumour cell growth, NCI panel, 48 h
The subject of assay [1] is CAKI-1 renal.
In assay [2] the test system is HOP-62 NSCLC.
Assay [3] deals with OVCAR-4 ovarian.
Assay [4] deals with RPMI-8226 leukemia.
Assay [5] deals with RXF 393 renal.
The subject of assay [6] is SF-295 CNS.
Assay [7] has as its system SNB-19 CNS.
Assay [8] has as its system U251 CNS.
Assay [9] deals with HOP-92 NSCLC.

Regarding `CCN1CC(C)Cn2c(=O)[nH]c3cc(Br)cc1c32` (centres undefined), the TGI in assay [1] is more than 100 µM; in [2] it was more than 100 µM; in assay [3], more than 100 µM; in assay [4], more than 100 µM; in assay [5] it was 37.3 µM; in [6], more than 100 µM. The TGI in assay [7] and in assay [8] was more than 100 µM throughout.

Regarding `S=C1c2ccccc2NC(=NC2CCCC2)C2CSCN12` (centres undefined), the TGI in assay [1], in assay [2], in [3], in [4], in [5] and in assay [6] was more than 100 µM throughout. Moreover, the TGI in assay [7] and in [8] was more than 100 µM throughout.

Take `Cc1c(-c2c(C)c3ccccc3n2S(=O)(=O)c2ccccc2)n(S(=O)(=O)c2ccccc2)c2ccccc12`: the TGI was more than 100 µM in [1]; more than 87.3 µM in assay [2]; more than 100 µM in [9]; more than 100 µM in [3]; more than 100 µM in assay [4]; more than 100 µM in assay [6]. Besides, the TGI in assay [7] and in assay [8] was more than 100 µM throughout.

Regarding `COC(=O)CCCc1ccc2c(c1)CC1(C2)Cc2cc3c(cc2C1)CCCC3`, the TGI in assay [2] is more than 100 µM; in assay [9] it was 85.1 µM; in assay [3], more than 100 µM; in [4], 85.2 µM; in [5], 94.2 µM; in assay [6], more than 100 µM. The molecule further had a TGI in assay [8] of more than 100 µM.

In the case of `CC(C)(NC(=O)OCc1ccccc1)C(=O)NC(Cc1ccccc1)C(=O)O` (centres undefined) (Cbz-[Aib]-[ξF]-OH), the TGI in assay [1], in assay [2], in [9], in [3], in assay [4] and in assay [6] was more than 100 µM throughout. For the same molecule, the TGI in assay [7] and in [8] was more than 100 µM each time.

Take `O=C(CSc1nc2ccccc2[nH]1)Nc1ccc(-c2nc3ccccc3s2)c(Cl)c1`: the GI50 in assay [1] was 4.17 µM; in [3], 2.56 µM; in [5] it was 2.66 µM; in [6], 3.63 µM; in assay [7], 5.44 µM; in [8], 1.85 µM. Besides, the TGI in assay [1] was more than 100 µM; in [3] it was more than 100 µM; in assay [5], 8.85 µM; in assay [6] it was more than 100 µM; in assay [7], 65.8 µM; in [8] it was 4.33 µM.

As to `CCNC(=O)Nc1cccc(C)n1`, the TGI in assay [1], in [2], in assay [9], in [3], in [5] and in assay [6] was more than 100 µM throughout. Further, the TGI in assay [7] and in assay [8] was more than 100 µM in each case.

With `Cc1cc2c(cc1Cl)Sc1nnc(Nc3ccccc3)n1S2(=O)=O`, the TGI in assay [1] stood at 53.8 µM; in assay [2], 15 µM; in assay [9] it was 28.8 µM; in [3], 32 µM; in assay [4], 6.91 µM; in assay [5], 24.2 µM. Moreover, the TGI stood at 49.6 µM in assay [6] and 19.1 µM in [8].

For the molecule `Cc1ccc(C)n2c1nc1ccc3ccccc3c12`, the TGI in [2], in [9], in [4], in [5], in assay [6] and in [7] was more than 100 µM each time. Besides, in assay [8], the TGI was more than 100 µM.

As to `C=CCC(C)C12CCNC(Cc3ccc(O)cc31)C2C` (centres undefined), the TGI in [2], in [9], in assay [3], in [4], in assay [5] and in assay [6] was more than 100 µM each time. In addition, the TGI in assay [7] and in assay [8] was more than 100 µM each time.

In the case of `CCOC(=O)/C(=C\NCC(O)c1ccccc1)c1nc2ccccc2[nH]1` (centres undefined), the TGI is more than 100 µM in assay [1]; more than 100 µM in assay [2]; 65.5 µM in [9]; 75.5 µM in assay [3]; 29.4 µM in assay [4]; more than 100 µM in assay [5]. The TGI in assay [6] was 67 µM; in [7], more than 100 µM.

Turning to `Cc1cnoc1NC1=CC(=O)C(=O)c2ccccc21`, the TGI in assay [1] was more than 100 µM; in assay [2], more than 100 µM; in assay [9], more than 100 µM; in assay [3], more than 100 µM; in assay [4] it was 50.3 µM; in assay [6], more than 100 µM. The values for the TGI in assay [7] and in [8] were 73.5 µM and 13.9 µM, respectively.

For `Cc1c(C)c(C)c(-n2[nH]c(=O)n(C)c2=O)c(C)c1C`, the TGI in assay [1], in assay [2], in assay [9], in assay [4], in assay [6] and in [7] was more than 100 µM in each case. In assay [8], the TGI was more than 100 µM.

Regarding `CC(=O)OC[C@H]1O[C@@H](O[C@H]2[C@H](OC(C)=O)C=CO[C@@H]2COC(C)=O)C(OC(C)=O)[C@H]2OC(C)(C)O[C@H]21` (some centres undefined), the TGI in [1], in [2], in assay [9], in [3], in assay [5] and in assay [6] was more than 100 µM throughout. In addition, the TGI in assay [7] and in [8] was more than 100 µM in each case.

With `Cc1ccc2c(=O)cc(-c3csc4ccccc34)[nH]c2n1`, the TGI is 0.228 µM in [1]; 21.8 µM in assay [2]; more than 81 µM in assay [9]; 15 µM in assay [4]; 0.0101 µM in assay [6]; 15.3 µM in [7]. This molecule also came in with a TGI in assay [8] of 0.0783 µM.

As to `O=[N+]([O-])c1cccc(-c2csc(N=Nc3c(O)[nH]c4ccccc34)n2)c1`, the TGI in [1] stood at 47 µM; in assay [2], 59.6 µM; in assay [9], 46.5 µM; in assay [3], 61.7 µM; in assay [5], 77.9 µM; in assay [6] it was 44.4 µM. Besides, the results for the TGI in assay [7] and in [8] were 82.2 µM and 40.4 µM, respectively.

With `CC(C)CCCC(C)[C@H]1CCC2[C@@H]3CCC4Cc5nc6c(nc5C[C@]4(C)C3CC[C@@]21C)CC1CC[C@@H]2C(C[C@@H](O)[C@@]3(C)C2C[C@@H]2OC4(CCC(C)CO4)C(C)[C@@H]23)[C@@]1(C)C6` (some centres undefined), the TGI in assay [2], in assay [9], in [3], in assay [4], in assay [5] and in [6] was more than 100 µM throughout. Besides, the TGI in [7] and in [8] was more than 100 µM each time.

As to `O=C(Nc1ccccc1F)c1c(O)nc2sccn2c1=O`, the TGI in [1], in [2], in assay [3], in assay [4], in [5] and in assay [6] was more than 10 µM in each case. For the same molecule, the TGI in assay [7] and in assay [8] was more than 10 µM in each case.

Take `CN(C)C(=S)N/N=C\C=N/NC(=S)N(C)C`: the TGI is more than 100 µM in [1]; more than 100 µM in [9]; more than 100 µM in assay [3]; more than 100 µM in assay [4]; more than 32.1 µM in assay [6]; more than 100 µM in assay [7]. The same molecule came in with a TGI in [8] of more than 100 µM.

`CCC1C(=O)C[C@H]2[C@@H]3C(O)CC4=CC(=O)CC[C@]4(C)[C@H]3CC[C@]12C` (some centres undefined): the TGI in [1], in assay [2], in [9], in assay [3], in assay [4] and in assay [6] was more than 50 µM each time. Further, the TGI in assay [7] and in assay [8] was more than 50 µM in each case.

Regarding `Cc1ccc2[nH]cc(-c3nc(-c4c[nH]c5ncccc45)cs3)c2c1`, the GI50 in assay [2], in assay [3], in assay [4], in [6], in [7] and in assay [8] was more than 100 µM each time. In addition, the TGI in assay [2], in [3], in assay [4], in [6], in [7] and in assay [8] was more than 100 µM throughout.

As to `Cc1ccc(N=Nc2c(C)nn(C(=O)CC(=O)Nc3ccccc3)c2C)cc1C`, the TGI in [1], in assay [2], in assay [9], in assay [3], in [4] and in [5] was more than 100 µM in each case. In addition, the TGI in [6] and in assay [8] was more than 100 µM throughout.

Consider `CN(C)c1ccc(/C=N/Nc2nc3ccccc3c(=O)n2-c2ccccc2)cc1`, for which the TGI in assay [1] was more than 100 µM; in [2] it was 97.8 µM; in [9], 85.9 µM; in assay [3], 70.2 µM; in [5] it was more than 100 µM; in assay [6] it was more than 100 µM. In addition, the TGI in [7] and in [8] was more than 100 µM in each case.

Consider `CCOC(C[Se]CC(OCC)OCC)OCC`, for which the TGI is more than 100 µM in [1]; more than 100 µM in [9]; more than 100 µM in [3]; more than 100 µM in assay [4]; 85.8 µM in [5]; more than 100 µM in assay [6]. Besides, the TGI in assay [7] was more than 100 µM; in assay [8], 38.4 µM.

For `COc1ccc(N[C@H](CS(=O)c2ccc(C)cc2)c2ccc(F)cc2)cc1` (some centres undefined), the TGI in assay [1], in assay [2], in assay [3], in [4], in assay [5] and in assay [6] was more than 100 µM throughout. In addition, the TGI in assay [7] and in assay [8] was more than 100 µM throughout.

Turning to `Oc1ccc(/C=C\c2nnc(/C=C\c3ccc(O)c(O)c3)s2)cc1O`, the TGI was 16.8 µM in [1]; 21.8 µM in assay [2]; 29.6 µM in assay [9]; 16 µM in assay [3]; 18.5 µM in assay [5]; 24.8 µM in assay [6]. For the same molecule, the TGI in [7] is 23.2 µM; in assay [8], 13.5 µM.

Regarding `CCC(C)[C@H](NC(=O)N[C@H](C)c1ccccc1)C(=O)OC` (some centres undefined), the TGI in assay [1], in assay [2], in [9], in assay [3], in assay [4] and in [6] was more than 100 µM each time. For the same molecule, the TGI in [7] and in assay [8] was more than 100 µM each time.

Regarding `CC(=O)C(C(C)=O)=C1CCCC(O)O1` (centres undefined), the TGI in assay [2], in [3], in [4], in [5], in assay [6] and in assay [7] was more than 100 µM each time. The molecule further showed a TGI in [8] of more than 100 µM.

`COc1ccc(N(C(=O)Nc2ccc(Cl)c(Cl)c2)c2ccccc2)cc1`: the TGI in assay [1], in assay [2], in assay [9], in assay [3], in assay [5] and in assay [6] was more than 10 µM in each case. The TGI in assay [7] and in [8] was more than 10 µM each time.

For `CCC(CCCN)Nc1cc(OC)cc2cccnc12` (centres undefined), the TGI in assay [1], in assay [2], in assay [9], in assay [3], in assay [5] and in [6] was more than 100 µM in each case. In addition, in [7], the TGI was more than 100 µM.

Turning to `CC1=NOC2(C1)/C(=N/O)CCC/C2=N\O` (centres undefined), the TGI in [1], in assay [2], in [3], in assay [4], in assay [5] and in [6] was more than 100 µM each time. Further, the TGI in assay [7] and in assay [8] was more than 100 µM in each case.
